Data as given in ChEMBL document CHEMBL3885861, “Open TG-GATES”.

Species: Rattus norvegicus
Test: Open TG-GATES - Regimen: Daily Repeat
Assay type: toxicity, organism-based, Sprague-Dawley
Design: regimen Daily Repeat, gender Male, age 6 weeks
Conditions: in vivo, po, 750 mg/kg, route gavage, dose level High; for APTT / Bas / Eos / Fbg / Hb / Ht / Lym / MCH / MCHC / MCV / Mono / Neu / PT / Plat / RBC / Ret / WBC: tissue Blood; for KIDNEY_L / KIDNEY_R / KIDNEY_TOTAL: tissue Kidney; for LIVER: tissue Liver; for A/G / ALP / ALT / AST / BUN / CRE / Ca / Cl / DBIL / GLC / IP / K / LDH / Na / PL / RALB / TBIL / TC / TG / TP / gamma-GTP: tissue Plasma

CN(C/C=C/C#CC(C)(C)C)Cc1cccc2ccccc12 [TERBINAFINE]
TERMINAL_BW (72 h, time 3 day): 217.7 g
APTT (72 h, time 3 day): 22.6 s
Bas (72 h, time 3 day): 0.8%
Eos (72 h, time 3 day): 0.8%
Fbg (72 h, time 3 day): 200.6 mg/dL
Hb (72 h, time 3 day): 14.1 g/dL
Ht (72 h, time 3 day): 41.1%
Lym (72 h, time 3 day): 82.8%
MCH (72 h, time 3 day): 20.9 pg
MCHC (72 h, time 3 day): 34.2%
MCV (72 h, time 3 day): 61 fL
Mono (72 h, time 3 day): 2.6%
Neu (72 h, time 3 day): 13%
PT (72 h, time 3 day): 12.5 s
Plat (72 h, time 3 day): 137.3 x10_4/uL
RBC (72 h, time 3 day): 673.8 x10_4/ul
Ret (72 h, time 3 day): 4.5%
WBC (72 h, time 3 day): 64.8 x10_2/uL
KIDNEY_L (72 h, time 3 day): 1 g
KIDNEY_R (72 h, time 3 day): 1.1 g
KIDNEY_TOTAL (72 h, time 3 day): 2.1 g
LIVER (72 h, time 3 day): 11.4 g
A/G (72 h, time 3 day): 2
ALP (72 h, time 3 day): 748.6 IU/L
ALT (72 h, time 3 day): 34.6 IU/L
AST (72 h, time 3 day): 62.6 IU/L
BUN (72 h, time 3 day): 10.6 mg/dL
CRE (72 h, time 3 day): 0.4 mg/dL
Ca (72 h, time 3 day): 9.5 mg/dL
Cl (72 h, time 3 day): 102.8 meq/L
DBIL (72 h, time 3 day): 0.09 mg/dL
GLC (72 h, time 3 day): 172 mg/dL
IP (72 h, time 3 day): 9.2 mg/dL
K (72 h, time 3 day): 3.8 meq/L
LDH (72 h, time 3 day): 207.4 IU/L
Na (72 h, time 3 day): 140.8 meq/L
PL (72 h, time 3 day): 123.2 mg/dL
RALB (72 h, time 3 day): 3.6 g/dL
TBIL (72 h, time 3 day): 0.2 mg/dL
TC (72 h, time 3 day): 81 mg/dL
TG (72 h, time 3 day): 19.2 mg/dL
TP (72 h, time 3 day): 5.4 g/dL
gamma-GTP (72 h, time 3 day): 1.8 IU/L
TERMINAL_BW ([…], time 7 day): 187.9 g
TERMINAL_BW ([…], time 14 day): 255.9 g
TERMINAL_BW ([…], time 28 day): 360.5 g
APTT ([…], time 7 day): 45.7 s
Bas ([…], time 7 day): 1%
Eos ([…], time 7 day): 0.6%
Fbg ([…], time 7 day): 187.6 mg/dL
Hb ([…], time 7 day): 15.9 g/dL
Ht ([…], time 7 day): 45.2%
Lym ([…], time 7 day): 77.6%
MCH ([…], time 7 day): 21.1 pg
MCHC ([…], time 7 day): 35.2%
MCV ([…], time 7 day): 59.8 fL
Mono ([…], time 7 day): 4.6%
Neu ([…], time 7 day): 15.8%
PT ([…], time 7 day): 30.8 s
Plat ([…], time 7 day): 146 x10_4/uL
RBC ([…], time 7 day): 755 x10_4/ul
Ret ([…], time 7 day): 0.3%
WBC ([…], time 7 day): 82.6 x10_2/uL
APTT ([…], time 14 day): 21.4 s
Bas ([…], time 14 day): 0.6%
Eos ([…], time 14 day): 0.6%
Fbg ([…], time 14 day): 198.4 mg/dL
Hb ([…], time 14 day): 13.8 g/dL
Ht ([…], time 14 day): 40.2%
Lym ([…], time 14 day): 70.4%
MCH ([…], time 14 day): 20.7 pg
MCHC ([…], time 14 day): 34.3%
MCV ([…], time 14 day): 60.3 fL
Mono ([…], time 14 day): 3.2%
Neu ([…], time 14 day): 24.4%
PT ([…], time 14 day): 11.9 s
Plat ([…], time 14 day): 119.4 x10_4/uL
RBC ([…], time 14 day): 667 x10_4/ul
Ret ([…], time 14 day): 5.8%
WBC ([…], time 14 day): 116.6 x10_2/uL
APTT ([…], time 28 day): 26 s
Bas ([…], time 28 day): 0.4%
Eos ([…], time 28 day): 1%
Fbg ([…], time 28 day): 211.6 mg/dL
Hb ([…], time 28 day): 14 g/dL
Ht ([…], time 28 day): 40.2%
Lym ([…], time 28 day): 76.4%
MCH ([…], time 28 day): 19.8 pg
MCHC ([…], time 28 day): 34.8%
MCV ([…], time 28 day): 57.1 fL
Mono ([…], time 28 day): 3.4%
Neu ([…], time 28 day): 18.4%
PT ([…], time 28 day): 12.8 s
Plat ([…], time 28 day): 110.7 x10_4/uL
RBC ([…], time 28 day): 705.6 x10_4/ul
Ret ([…], time 28 day): 2.9%
WBC ([…], time 28 day): 115.7 x10_2/uL
KIDNEY_L ([…], time 7 day): 1.1 g
KIDNEY_R ([…], time 7 day): 1.1 g
KIDNEY_TOTAL ([…], time 7 day): 2.2 g
KIDNEY_L ([…], time 14 day): 1.2 g
KIDNEY_R ([…], time 14 day): 1.3 g
KIDNEY_TOTAL ([…], time 14 day): 2.5 g
KIDNEY_L ([…], time 28 day): 1.6 g
KIDNEY_R ([…], time 28 day): 1.7 g
KIDNEY_TOTAL ([…], time 28 day): 3.3 g
LIVER ([…], time 7 day): 12.4 g
LIVER ([…], time 14 day): 16.5 g
LIVER ([…], time 28 day): 21.9 g
A/G ([…], time 7 day): 1.9
ALP ([…], time 7 day): 692.8 IU/L
ALT ([…], time 7 day): 52 IU/L
AST ([…], time 7 day): 81.4 IU/L
BUN ([…], time 7 day): 14.6 mg/dL
CRE ([…], time 7 day): 0.5 mg/dL
Ca ([…], time 7 day): 9.1 mg/dL
Cl ([…], time 7 day): 103.6 meq/L
DBIL ([…], time 7 day): 0.1 mg/dL
GLC ([…], time 7 day): 141 mg/dL
IP ([…], time 7 day): 7 mg/dL
K ([…], time 7 day): 4.6 meq/L
LDH ([…], time 7 day): 214.2 IU/L
Na ([…], time 7 day): 142.4 meq/L
PL ([…], time 7 day): 145 mg/dL
RALB ([…], time 7 day): 3.5 g/dL
TBIL ([…], time 7 day): 0.2 mg/dL
TC ([…], time 7 day): 96.8 mg/dL
TG ([…], time 7 day): 21.4 mg/dL
TP ([…], time 7 day): 5.3 g/dL
gamma-GTP ([…], time 7 day): 2.6 IU/L
A/G ([…], time 14 day): 1.7
ALP ([…], time 14 day): 536.8 IU/L
ALT ([…], time 14 day): 37 IU/L
AST ([…], time 14 day): 60.2 IU/L
BUN ([…], time 14 day): 15.8 mg/dL
CRE ([…], time 14 day): 0.4 mg/dL
Ca ([…], time 14 day): 10.4 mg/dL
Cl ([…], time 14 day): 103 meq/L
DBIL ([…], time 14 day): 0.074 mg/dL
GLC ([…], time 14 day): 183 mg/dL
IP ([…], time 14 day): 7.8 mg/dL
K ([…], time 14 day): 4 meq/L
LDH ([…], time 14 day): 151.8 IU/L
Na ([…], time 14 day): 142.8 meq/L
PL ([…], time 14 day): 136.4 mg/dL
RALB ([…], time 14 day): 3.8 g/dL
TBIL ([…], time 14 day): 0.1 mg/dL
TC ([…], time 14 day): 82 mg/dL
TG ([…], time 14 day): 20.4 mg/dL
TP ([…], time 14 day): 6.1 g/dL
gamma-GTP ([…], time 14 day): 1.2 IU/L
A/G ([…], time 28 day): 1.8
ALP ([…], time 28 day): 601.2 IU/L
ALT ([…], time 28 day): 50 IU/L
AST ([…], time 28 day): 65.4 IU/L
BUN ([…], time 28 day): 14.8 mg/dL
CRE ([…], time 28 day): 0.5 mg/dL
Ca ([…], time 28 day): 10.2 mg/dL
Cl ([…], time 28 day): 103.2 meq/L
DBIL ([…], time 28 day): 0.08 mg/dL
GLC ([…], time 28 day): 197.2 mg/dL
IP ([…], time 28 day): 8 mg/dL
K ([…], time 28 day): 3.8 meq/L
LDH ([…], time 28 day): 178.8 IU/L
Na ([…], time 28 day): 142.4 meq/L
PL ([…], time 28 day): 146.4 mg/dL
RALB ([…], time 28 day): 3.9 g/dL
TBIL ([…], time 28 day): 0.2 mg/dL
TC ([…], time 28 day): 88.4 mg/dL
TG ([…], time 28 day): 18.2 mg/dL
TP ([…], time 28 day): 6.1 g/dL
gamma-GTP ([…], time 28 day): 1.6 IU/L
